Data reported in patent publication US20140274688A1, “MOLECULES HAVING CERTAIN PESTICIDAL UTILITIES, AND INTERMEDIATES, COMPOSITIONS, AND PROCESSES RELATED THERETO” (DOW AGROSCIENCES LLC, priority 2013, published 2014).

Assays:
[1] = system: Cabbage Looper (Trichoplusia ni) ("CL"); assay: Bioassay on Cabbage Looper (CL), 128-well diet tray assay, percent mortality; format: in vivo; details: for pest or weed control at 50 µg/cm2: Trichoplusia ni, read-out: CL; for CL rating (percent mortality class): Cabbage Looper, 128-well diet tray assay
Description: (§1) Bioassays on Beet Armyworm (Spodoptera exigua) (“BAW”) and Cabbage Looper (Trichoplusia ni) (“CL”)
(§2) BAW has few effective parasites, diseases, or predators to lower its population. BAW infests many weeds, trees, grasses, legumes, and field crops. In various places, it is of economic concern upon asparagus, cotton, corn, soybeans, tobacco, alfalfa, sugar beets, peppers, tomatoes, potatoes, onions, peas, sunflowers, and citrus, among other plants. The Cabbage Looper is a member of the moth family Noctuidae. It is found throughout the world. It is attacks cabbage, cauliflower, broccoli, Brussel sprouts, tomatoes, cucumbers, potatoes, kale, turnips, mustard, peppers, eggplant, watermelons, melons, squash, cantaloupe, peas, beans, collards, lettuce, spinach, celery, parsley, beets, peas, alfalfa, soybeans, and cotton. This species is very destructive to plants due to its voracious consumption of leaves. In the case of cabbage, however, they feed not only on the wrapper leaves, but also may bore into the developing head. The larvae consume three times their weight in plant material daily. The feeding sites are marked by large accumulations of sticky, wet fecal material.
(§3) Consequently, because of the above factors control of these pests is important.
(§4) Certain molecules disclosed in this document were tested against BAW and CEW using procedures described in the following examples. In the reporting of the results, the “BAW & CL Rating Table” was used (See Table Section).
Bioassays on Cabbage Looper in CL
(§5) Trays were covered with a clear self-adhesive cover and held at 25° C., 14:10 light-dark for five to seven days. Percent mortality was recorded for the larvae in each well; activity in the eight wells was then averaged. The results are indicated in the table entitled “Table ABC: Biological Results” (See Table Section).

[2] = system: Beet Armyworm (Spodoptera exigua) ("BAW"); assay: Bioassay on Beet Armyworm (BAW), 128-well diet tray assay, percent mortality; format: in vivo; details: for pest or weed control at 50 µg/cm2: Spodoptera exigua, read-out: BAW; for BAW rating (percent mortality class): Beet Armyworm, 128-well diet tray assay
Description: as §1, §2, §3, §4, §5

| Compound | pest or weed control at 50 µg/cm2 [1] | pest or weed control at 50 µg/cm2 [2] | CL rating (percent mortality class) [1] | BAW rating (percent mortality class) [2] |
| --- | --- | --- | --- | --- |
| Cc1ccc(N2C(=O)CS/C2=N\C(=O)NCc2ccc(-c3ncn(-c4ccc(OC(F)(F)F)cc4)n3)cc2)c(C(C)C)c1 [P5, (Z)-1-(3-(2-isopropyl-4-methylphenyl)-4-oxothiazolidin-2-ylidene)-3-(4-(1-(4-(trifluoromethoxy)phenyl)-1H-1,2,4-triazol-3-yl)benzyl)urea] | 50 to 100% | 50 to 100% |  |  |
| CC(C)c1ccccc1N1C(=O)CS/C1=N\C(=O)NCCc1cccc(-c2ncn(-c3ccc(OC(F)(F)F)cc3)n2)c1 [P76, (Z)-1-(3-(2-isopropylphenyl)-4-oxothiazolidin-2-ylidene)-3-(3-(1-(4-(trifluoromethoxy)phenyl)-1H-1,2,4-triazol-3-yl)phenethyl)urea] | 50 to 100% | 50 to 100% |  |  |
| CC(C)c1ccccc1N1C(=O)CS/C1=N\C(=O)NCc1ccc(-c2ncn(-c3ccc(OC(F)(F)C(F)(F)F)cc3)n2)cc1 [F18, (Z)-1-(3-(2-isopropylphenyl)-4-oxothiazolidin-2-ylidene)-3-(4-(1-(4-(perfluoroethoxy)phenyl)-1H-1,2,4-triazol-3-yl)benzyl)urea] |  |  | A (50-100) | A (50-100) |
| CCc1ccc(C)cc1N1C(=O)CS/C1=N\C(=O)NCc1ccc(-c2ncn(-c3ccc(OC(F)(F)F)cc3)n2)cc1 [P7, (Z)-1-(3-(2-ethyl-5-methylphenyl)-4-oxothiazolidin-2-ylidene)-3-(4-(1-(4-(trifluoromethoxy)phenyl)-1H-1,2,4-triazol-3-yl)benzyl)urea] | 50 to 100% | 50 to 100% |  |  |
| COc1ccc(N2C(=O)CS/C2=N\C(=O)NCCc2cccc(-c3ncn(-c4ccc(OC(F)(F)F)cc4)n3)c2)c(C)c1 [P87, (Z)-1-(3-(4-methoxy-2-methylphenyl)-4-oxothiazolidin-2-ylidene)-3-(3-(1-(4-(trifluoromethoxy)phenyl)-1H-1,2,4-triazol-3-yl)phenethyl)urea] | 50 to 100% | 50 to 100% |  |  |
| CC(C)c1cc(F)ccc1N1C(=O)CS/C1=N\C(=O)NCCCCc1cccc(-c2ncn(-c3ccc(OC(F)(F)F)cc3)n2)c1 [P181, (Z)-1-(3-(4-fluoro-2-isopropylphenyl)-4-oxothiazolidin-2-ylidene)-3-(4-(3-(1-(4-(trifluoromethoxy)phenyl)-1H-1,2,4-triazol-3-yl)phenyl)butyl)urea] | 50 to 100% | 50 to 100% |  |  |
| Cc1ccc(C(C)C)c(N2CCS/C2=N\C(=O)NC2CC2c2ccc(-c3ncn(-c4ccc(OC(F)(F)F)cc4)n3)cc2)c1 (stereo not drawn) [F34, (Z)-1-(3-(2-isopropyl-5-methylphenyl)thiazolidin-2-ylidene)-3-(2-(4-(1-(4-(trifluoromethoxy)-phenyl)-1H-1,2,4-triazol-3-yl)phenyl)cyclopropyl)urea] |  |  | A (50-100) | A (50-100) |
| COc1ccc(N2C(=O)CS/C2=N\C(=O)NCCCc2ccc(-c3ncn(-c4ccc(OC(F)(F)F)cc4)n3)cc2)c(C)c1 [P105, (Z)-1-(3-(4-methoxy-2-methylphenyl)-4-oxothiazolidin-2-ylidene)-3-(3-(4-(1-(4-(trifluoromethoxy)phenyl)-1H-1,2,4-triazol-3-yl)phenyl)propyl)urea] | 50 to 100% | 50 to 100% |  |  |
| CCc1ccccc1N1C(=O)CS/C1=N\C(=O)NCCCCc1ccc(-c2ncn(-c3ccc(OC(F)(F)F)cc3)n2)cc1 [P145, (Z)-1-(3-(2-ethylphenyl)-4-oxothiazolidin-2-ylidene)-3-(4-(4-(1-(4-(trifluoromethoxy)phenyl)-1H-1,2,4-triazol-3-yl)phenyl)butyl)urea] | 50 to 100% | 50 to 100% |  |  |
| CC(C)c1cc(F)ccc1N1C(=O)CS/C1=N\C(=O)NCc1ccc(-c2ncn(-c3ccc(OC(F)(F)F)cc3)n2)cc1 [P3, (Z)-1-(3-(4-fluoro-2-isopropylphenyl)-4-oxothiazolidin-2-ylidene)-3-(4-(1-(4-(trifluoromethoxy)phenyl)-1H-1,2,4-triazol-3-yl)benzyl)urea] | 50 to 100% | 50 to 100% |  |  |
| Cc1ccc(N2C(=O)CS/C2=N\C(=O)NCc2ccc(-c3ncn(-c4ccc(C(F)(F)F)cc4)n3)cc2)c(C(C)C)c1 [P15, (Z)-1-(3-(2-isopropyl-4-methylphenyl)-4-oxothiazolidin-2-ylidene)-3-(4-(1-(4-(trifluoromethyl)phenyl)-1H-1,2,4-triazol-3-yl)benzyl)urea] | 50 to 100% | 50 to 100% |  |  |
| CC(C)c1cc(F)ccc1N1C(=O)CS/C1=N\C(=O)NCCc1cccc(-c2ncn(-c3ccc(OC(F)(F)F)cc3)n2)c1 [P85, (Z)-1-(3-(4-fluoro-2-isopropylphenyl)-4-oxothiazolidin-2-ylidene)-3-(3-(1-(4-(trifluoromethoxy)phenyl)-1H-1,2,4-triazol-3-yl)phenethyl)urea] | 50 to 100% | 50 to 100% |  |  |
| CC(C)c1ccccc1N1C(=O)CS/C1=N\C(=O)NCCc1ccc(-c2ncn(-c3ccc(OC(F)(F)F)cc3)n2)cc1 [F1, (Z)-1-(3-(2-isopropylphenyl)-4-oxothiazolidin-2-ylidene)-3-(4-(1-(4-(trifluoromethoxy)phenyl)-1H-1,2,4-triazol-3-yl)phenethyl)urea] |  |  | A (50-100) | A (50-100) |
| Cc1ccc(N2C(=O)CS/C2=N\C(=O)NCCCc2cccc(-c3ncn(-c4ccc(OC(F)(F)F)cc4)n3)c2)c(C(C)C)c1 [P128, (Z)-1-(3-(2-isopropyl-4-methylphenyl)-4-oxothiazolidin-2-ylidene)-3-(3-(3-(1-(4-(trifluoromethoxy)phenyl)-1H-1,2,4-triazol-3-yl)phenyl)propyl)urea] | 50 to 100% | 50 to 100% |  |  |
| CC(C)c1ccccc1NC(=S)NC(=O)N/C=C/c1ccc(-c2ncn(-c3ccc(OC(F)(F)F)cc3)n2)cc1 [F11, N-[2-(propan-2-yl)phenyl]-N′-[(E)-2-(4-{1-[4-(trifluoromethoxy)phenyl]-1H-1,2,4-triazol-3-yl}phenyl)ethenyl]dicarbonimidothioic diamide] |  |  | A (50-100) | A (50-100) |
| CC(C)c1ccccc1N1C(=O)CS/C1=N\C(=O)NCc1ccc(-c2ncn(-c3ccc(OC(F)(F)F)cc3)n2)cc1 [F17, (Z)-1-(3-(2-isopropylphenyl)-4-oxothiazolidin-2-ylidene)-3-(4-(1-(4-(trifluoromethoxy)phenyl)-1H-1,2,4-triazol-3-yl)benzyl)urea] |  |  | A (50-100) | A (50-100) |
| Cc1cccc(C)c1NC(=S)NC(=O)NC1CC1c1ccc(-c2ncn(-c3ccc(OC(F)(F)F)cc3)n2)cc1 (stereo not drawn) [F25] |  |  | A (50-100) | A (50-100) |
| CCCc1ccc(C)cc1N1C(=O)CS/C1=N\C(=O)NCCc1cccc(-c2ncn(-c3ccc(OC(F)(F)F)cc3)n2)c1 [P80, (Z)-1-(3-(5-methyl-2-propylphenyl)-4-oxothiazolidin-2-ylidene)-3-(3-(1-(4-(trifluoromethoxy)phenyl)-1H-1,2,4-triazol-3-yl)phenethyl)urea] | 50 to 100% | 50 to 100% |  |  |
